The test system of assay [1] is Puccinia triticina. Description: Wheat Brown Rust (PUCCRT) disease control on wheat seedlings. Type of assay: in vivo. To be noted: for pest or weed control at 121.5 g/ha: Low Volume (121.5 g/H); for pest or weed control at 100 µg/mL: High Volume (100 ppm). As for the experimental part: Technical grades of materials were dissolved in acetone, which were then mixed with nine volumes of water containing 110 ppm Triton X-100. The fungicide solutions were applied onto wheat seedlings using an automated booth sprayer to run-off. All sprayed plants were allowed to air dry prior to further handling. All fungicides were evaluated using the aforementioned method for their activity vs. all target diseases, unless stated otherwise. Wheat leaf blotch and brown rust activity were also evaluated using track spray applications, in which case the fungicides were formulated as EC formulations, containing 0.1% Trycol 5941 in the spray solutions. Wheat plants (variety Yuma) were grown from seed in a greenhouse in 50% mineral soil/50% soil-less Metro mix until the first leaf was fully emerged, with 7-10 seedlings per pot. These plants were inoculated with an aqueous spore suspension of Septoria tritici either prior to or after fungicide treatments. After inoculation the plants were kept in 100% relative humidity (one day in a dark dew chamber followed by two to three days in a lighted dew chamber at 20° C.) to permit spores to germinate and infect the leaf. The plants were then transferred to a greenhouse set at 20° C. for disease to develop. When disease symptoms were fully expressed on the 1st leaves of untreated plants, infection levels were assessed on a scale of 0 to 100 percent disease severity. Percent disease control was calculated using the ratio of disease severity on treated plants relative to untreated plants. Example B: Evaluation of Fungicidal Activity: Wheat Brown Rust (Puccinia triticina; Synonym: Puccinia recondita f. sp. tritici; Bayer code PUCCRT) Wheat plants (variety Yuma) were grown from seed in a greenhouse in 50% mineral soil/50% soil-less Metro mix until the first leaf was fully emerged, with 7-10 seedlings per pot. These plants were inoculated with an aqueous spore suspension of Puccinia triticina either prior to or after fungicide treatments. After inoculation the plants were kept in a dark dew room at 22° C. with 100% relative humidity overnight to permit spores to germinate and infect the leaf. The plants were then transferred to a greenhouse set at 24° C. for disease to develop. Fungicide formulation, application and disease assessment followed the procedures as described in the Example A.

For assay [2], the system named is Zymoseptoria tritici. Description: Leaf Blotch of Wheat (SEPTTR) disease control on wheat seedlings. Type of assay: in vivo. The conditions noted are these: for pest or weed control at 121.5 g/ha: Low Volume (121.5 g/H); for pest or weed control at 100 µg/mL: High Volume (100 ppm). As for the experimental part:
Example A: Evaluation of Fungicidal Activity: Leaf Blotch of Wheat (Mycosphaerella graminicola; Anamorph: Zymoseptoria tritici; Bayer code […]) Technical grades of materials were dissolved in acetone, which were then mixed with nine volumes of water containing 110 ppm Triton X-100. The fungicide solutions were applied onto wheat seedlings using an automated booth sprayer to run-off. All sprayed plants were allowed to air dry prior to further handling. All fungicides were evaluated using the aforementioned method for their activity vs. all target diseases, unless stated otherwise. Wheat leaf blotch and brown rust activity were also evaluated using track spray applications, in which case the fungicides were formulated as EC formulations, containing 0.1% Trycol 5941 in the spray solutions. Wheat plants (variety Yuma) were grown from seed in a greenhouse in 50% mineral soil/50% soil-less Metro mix until the first leaf was fully emerged, with 7-10 seedlings per pot. These plants were inoculated with an aqueous spore suspension of Septoria tritici either prior to or after fungicide treatments. After inoculation the plants were kept in 100% relative humidity (one day in a dark dew chamber followed by two to three days in a lighted dew chamber at 20° C.) to permit spores to germinate and infect the leaf. The plants were then transferred to a greenhouse set at 20° C. for disease to develop. When disease symptoms were fully expressed on the 1st leaves of untreated plants, infection levels were assessed on a scale of 0 to 100 percent disease severity. Percent disease control was calculated using the ratio of disease severity on treated plants relative to untreated plants.

The mark [3] stands for this setting: 24 h, 1 Day Protectant, read-out: PUCCRT disease control, 1 DP.
The mark [4] stands for this setting: 72 h, 3 Day Curative, read-out: PUCCRT disease control, 3 DC.
The mark [5] stands for this setting: 24 h, 1 Day Protectant, read-out: SEPTTR disease control, 1 DP.
The mark [6] stands for this setting: 72 h, 3 Day Curative, read-out: SEPTTR disease control, 3 DC.

Our source for the pest or weed control values is US9686984B2, “Macrocyclic picolinamides as fungicides” (DOW AGROSCIENCES LLC, priority 2014, dated 2017).

Read-outs that look alike come from different tables or passages of the source.

`COc1ccnc(C(=O)N[C@H]2CCOC[C@@H](Cc3ccccc3-c3ccccc3)[C@H](C)OC2=O)c1OCOC(C)=O` [Compound 28]: the pest or weed control at 121.5 g/ha in assay [1] (setting [3]), in assay [1] (setting [4]), in assay [2] (setting [5]) and in assay [2] (setting [6]) was > 70% in each case.

For the molecule `COCC[C@H]1OCC[C@H](NC(=O)c2nccc(OC)c2OCOC(C)=O)C(=O)O[C@@H](C)[C@@H]1Cc1ccccc1` [Compound 20], the pest or weed control at 121.5 g/ha in assay [1] (setting [3]), in assay [1] (setting [4]), in assay [2] (setting [5]) and in assay [2] (setting [6]) was > 70% each time.

As to `COc1ccnc(C(=O)N[C@H]2CCO[C@H](CCc3ccccc3)[C@@H](Cc3ccc(F)cc3)[C@H](C)OC2=O)c1OCOC(=O)C(C)C` [Compound 38], the pest or weed control at 121.5 g/ha in assay [1] (setting [3]), in assay [1] (setting [4]), in assay [2] (setting [5]) and in assay [2] (setting [6]) was > 70% in each case.

`CCCC[C@H]1[C@H](C)OC(=O)[C@@H](NC(=O)c2nccc(OC)c2O)CCO[C@@H]1COc1ccccc1` [Compound 68]: the pest or weed control at 100 µg/mL in assay [1] (setting [3]) is > 70%; in assay [1] (setting [4]), > 70%; in assay [2] (setting [5]), > 70%; in assay [2] (setting [6]) it was < 70%.

Turning to `COc1ccnc(C(=O)N[C@H]2CCOC[C@@H](Cc3ccccc3-c3ccccc3)[C@H](C)OC2=O)c1OC(C)=O` [Compound 11], the pest or weed control at 121.5 g/ha in assay [1] (setting [3]) is > 70%; in assay [1] (setting [4]), > 70%; in assay [2] (setting [5]) it was > 70%; in assay [2] (setting [6]), < 70%.

Take `COc1ccnc(C(=O)N[C@H]2CCO[C@H](CCc3ccccc3)[C@@H](CCC(C)C)[C@H](C)OC2=O)c1OC(C)=O` [Compound 9]: the pest or weed control at 121.5 g/ha in assay [1] (setting [3]), in assay [1] (setting [4]), in assay [2] (setting [5]) and in assay [2] (setting [6]) was > 70% in each case.

For the molecule `CCCC[C@H]1[C@H](C)OC(=O)[C@@H](NC(=O)c2nccc(OC)c2OCOC(C)=O)CCO[C@@H]1COC(=O)C(C)C` [Compound 32], the pest or weed control at 121.5 g/ha in assay [1] (setting [3]), in assay [1] (setting [4]), in assay [2] (setting [5]) and in assay [2] (setting [6]) was > 70% each time.

Turning to `COc1ccnc(C(=O)N[C@H]2CCO[C@H](CCc3ccccc3)[C@@H](Cc3ccc(F)cc3)[C@H](C)OC2=O)c1O` [Compound 57, N-((2R,3S,4S,7S)-3-(4-fluorobenzyl)-4-methyl-6-oxo-2-phenethyl-1,5-dioxonan-7-yl)-3-hydroxy-4-methoxypicolinamide], the pest or weed control at 100 µg/mL in assay [1] (setting [3]) is > 70%; in assay [1] (setting [4]), < 70%; in assay [2] (setting [5]), > 70%; in assay [2] (setting [6]) it was > 70%.

Turning to `COCC[C@H]1OCC[C@H](NC(=O)c2nccc(OC)c2OCOC(C)=O)C(=O)O[C@@H](C)[C@@H]1Cc1ccc(F)cc1` [Compound 25], the pest or weed control at 121.5 g/ha was > 70% in assay [1] (setting [3]), > 70% in assay [1] (setting [4]), < 70% in assay [2] (setting [5]) and < 70% in assay [2] (setting [6]).

Take `CCCC[C@H]1[C@H](C)OC(=O)[C@@H](NC(=O)c2nccc(OC)c2OCOC(=O)COCC)CCO[C@@H]1COc1ccccc1` [Compound 47]: the pest or weed control at 121.5 g/ha in assay [1] (setting [3]), in assay [1] (setting [4]), in assay [2] (setting [5]) and in assay [2] (setting [6]) was > 70% each time.

In the case of `CC[C@H]1OCC[C@H](NC(=O)c2nccc(OC)c2O)C(=O)O[C@@H](C)[C@@H]1Cc1ccc(F)cc1` [Compound 55], the pest or weed control at 100 µg/mL in assay [1] (setting [3]), in assay [1] (setting [4]), in assay [2] (setting [5]) and in assay [2] (setting [6]) was > 70% throughout.

As to `CCCC[C@H]1[C@H](C)OC(=O)[C@@H](NC(=O)c2nccc(OC)c2OC(C)=O)CCO[C@@H]1COc1ccccc1` [Compound 15], the pest or weed control at 121.5 g/ha in assay [1] (setting [3]), in assay [1] (setting [4]), in assay [2] (setting [5]) and in assay [2] (setting [6]) was > 70% each time.

Take `COc1ccnc(C(=O)N[C@H]2CCO[C@H](CCc3ccccc3)[C@@H](Cc3ccc(F)cc3)[C@H](C)OC2=O)c1OC(C)=O` [Compound 7, 2-(((2R,3S,4S,7S)-3-(4-fluorobenzyl)-4-methyl-6-oxo-2-phenethyl-1,5-dioxonan-7-yl)carbamoyl)-4-methoxypyridin-3-yl acetate]: the pest or weed control at 121.5 g/ha in assay [1] (setting [3]), in assay [1] (setting [4]), in assay [2] (setting [5]) and in assay [2] (setting [6]) was > 70% throughout.

As to `CCCC[C@H]1[C@H](C)OC(=O)[C@@H](NC(=O)c2nccc(OC)c2OCOC(=O)C(C)C)CCO[C@@H]1COc1ccccc1` [Compound 41], the pest or weed control at 121.5 g/ha in assay [1] (setting [3]), in assay [1] (setting [4]), in assay [2] (setting [5]) and in assay [2] (setting [6]) was > 70% in each case.

In the case of `COc1ccnc(C(=O)N[C@H]2CCOC[C@@H](Cc3ccccc3)[C@H](C)OC2=O)c1OCOC(=O)C(C)C` [Compound 36], the pest or weed control at 121.5 g/ha in assay [1] (setting [3]) is > 70%; in assay [1] (setting [4]), > 70%; in assay [2] (setting [5]), > 70%; in assay [2] (setting [6]) it was < 70%.

Take `COc1ccnc(C(=O)N[C@H]2CCO[C@H](Cc3ccccc3)[C@@H](Cc3ccccc3)[C@H](C)OC2=O)c1OCOC(C)=O` [Compound 19]: the pest or weed control at 121.5 g/ha in assay [1] (setting [3]), in assay [1] (setting [4]), in assay [2] (setting [5]) and in assay [2] (setting [6]) was > 70% throughout.

For `COc1ccnc(C(=O)N[C@H]2CCOC[C@@H](Cc3ccc(F)cc3)[C@H](C)OC2=O)c1OCOC(C)=O` [Compound 21], the pest or weed control at 121.5 g/ha in assay [1] (setting [3]) is > 70%; in assay [1] (setting [4]), > 70%; in assay [2] (setting [5]), > 70%; in assay [2] (setting [6]), < 70%.

`CCOCC(=O)OCOc1c(OC)ccnc1C(=O)N[C@H]1CCOC[C@@H](Cc2ccccc2)[C@H](C)OC1=O` [Compound 42, ((2-(((3R,4S,7S)-3-benzyl-4-methyl-6-oxo-1,5-dioxonan-7-yl)carbamoyl)-4-methoxypyridin-3-yl)oxy)methyl 2-ethoxyacetate]: the pest or weed control at 121.5 g/ha in assay [1] (setting [3]), in assay [1] (setting [4]), in assay [2] (setting [5]) and in assay [2] (setting [6]) was > 70% throughout.

`CCCC[C@H]1[C@H](C)OC(=O)[C@@H](NC(=O)c2nccc(OC)c2OC(C)=O)CCO[C@@H]1CC` [Compound 14]: the pest or weed control at 121.5 g/ha is > 70% in assay [1] (setting [3]), > 70% in assay [1] (setting [4]), > 70% in assay [2] (setting [5]) and < 70% in assay [2] (setting [6]).

On to `CCCC[C@H]1OCC[C@H](NC(=O)c2nccc(OC)c2OCOC(C)=O)C(=O)O[C@@H](C)[C@@H]1Cc1ccc(F)cc1` [Compound 23], for which the pest or weed control at 121.5 g/ha in assay [1] (setting [3]), in assay [1] (setting [4]), in assay [2] (setting [5]) and in assay [2] (setting [6]) was > 70% in each case.
